Data as given in US9725752B2, “Resonator and process for performing biological assay” (THE UNITED STATES OF AMERICA, AS REPRESENTED BY THE …, priority 2015, dated 2017).

Columns and labels:
Type in all cases: cell-based
[1] = test system: Escherichia coli (E. coli) cells; assay: Optical microscope images of cell density on the crystal
[2] = test system: Escherichia coli (E. coli) cells; assay: Plating of cells collected from the crystal for enumeration of colony-forming units (CFUs); details: LB-agar plates, growth at least 24 hours; for number of CFUs relative to a parallel sample not exposed to antibiotic: cells collected from crystal
Text: To confirm the action of the antibiotic on E. coli viability, cells were collected from the surface of the crystal and plated after serial dilution onto LB-agar plates for enumeration of colony-forming units (CFUs).
To confirm the action of the antibiotic on E. coli viability, cells were collected from the surface of the resonators (Crystal A and Crystal B) and plated after serial dilution onto LB-agar plates for enumeration of colony-forming units (CFUs).

[3] = test system: Escherichia coli (E. coli) cells; assay: Phase noise of piezoelectric resonator with adhered microbes exposed to antibiotic; details: for time frame in which the resonator method detects antimicrobial action against live E. coli cells: preliminary experiments; for PSDs of the acoustic resonators when the antibiotic was introduced: spectral power 4 Hz to 20 Hz, FIG. 35, FIG. 36
Description: An acoustic article was prepared to detect microbial viability through measurements of phase noise of a resonator on which microbes were adhered. An acoustic article was prepared by combining a piezoelectric resonator (commercially available from Biolin Scientific, model Q-Sense) and custom fabricated components that interfaced to the piezoelectric resonator. The piezoelectric resonator included an electrical contact to a piezoelectric crystal. […] One side of the piezoelectric crystal faced a fluid chamber and was coated with a thin layer of poly-L-lysine (PLL) to promote adhesion of microbes to the surface. The piezoelectric resonator was disposed on an aluminum platform that incorporated electrical lines to the resonator, and the platform was placed on a thermally controlled platform held at a constant temperature of approximately 37° C. Phosphate-buffered saline (PBS) was introduced to the fluid chamber, and electronics configured according to FIG. 30 and FIG. 31 were used to determine the resonant frequency of the resonator by varying the output frequency from frequency source 200 while monitoring the amplitude of the RF output from amplifier 222. The output frequency of the CW voltage from the frequency source was then set to this measured resonant frequency. Subsequently, averaged power spectral densities of phase noise from the resonator were determined from the measured time-varying voltage from phase-noise detector 106 passed to vector signal analyzer 206, through the use of a calibration of phase-noise detector 106. Following acquisition of this background spectrum, Escherichia coli (E. coli) cells were suspended in PBS and flowed through the fluid chamber over the crystal for five minutes. The chamber was then drained of fluid and refilled with Luria-Bertani (LB) broth to provide nutrients for bacterial growth. E. coli adhered to the crystal surface during this sequence, and unattached cells were washed away.
Power spectral densities (PSDs) were repeatedly acquired over a period beginning 30 minutes before ampicillin in LB was introduced to the crystal and ending 68 minutes after this introduction of ampicillin. Before the acquisition of each averaged spectrum, the output of frequency source 200 was retuned to the current frequency of the resonator while monitoring the output of amplifier 222. […] The background PSD in PBS has been subtracted from these spectra.
To provide a scalar quantity reflective of the measured PSDs, the spectra in FIG. 33 and similar spectra at other times during the experiment were integrated over the frequency range from 3 Hz to 20 Hz. This quantity, which is the total spectral power over this frequency range, is plotted in FIG. 34 as a function of time.
Simultaneous control measurements of PSDs were also acquired on a second piezoelectric crystal with the same sequence of introduction of fluids, except that the effector fluid contained no ampicillin. With this control crystal, PSDs increased continuously during the entire experiment.
The acoustic article, electronic circuitry, data acquisition procedures, and fluid-analyte processing steps described in Example 1 were used to probe the effect of an antibiotic, polymyxin B, on phase noise generated by E. coli Here, two identical resonators (“Crystal A” and “Crystal B”) were used in which Crystal B was not exposed to polymyxin B until more than 40 minutes after introduction of polymyxin B to Crystal A.
Measurements of PSDs of the first resonator (Crystal A) before and after exposure of E. coli to polymyxin B are shown in FIG. 35. […] Data from second resonator Crystal B with E. coli not exposed to polymyxin B during 0-40 minutes are shown in FIG. 36 and labelled as “Crystal B,” wherein data labelled as “Crystal A” are data taken in presence of polymyxin B during 0-40 minutes and later.

Row | Compound | cell density after introduction of antibiotic ([1]; period beginning 30 min after introduction of ampicillin, FIG. 34) | number of CFUs relative to a parallel sample not exposed to antibiotic [2] | spectral power of phase noise soon after introduction of antibiotic ([3]; PSD integrated 3 Hz to 20 Hz, E. coli on PLL-coated crystal in LB, approx. 37° C., FIG. 34) | time after introduction of antibiotic at which spectral power began dropping towards the background level ([3]; PSD integrated 3 Hz to 20 Hz, FIG. 34) | time frame in which the resonator method detects antimicrobial action against live E. coli cells [3] | PSDs of the acoustic resonators when the antibiotic was introduced [3] | disintegration of E. coli cells [1] | CFUs recovered from treated resonators ([2]; FIG. 37)
1 | CC1(C)S[C@@H]2[C@H](NC(=O)[C@H](N)c3ccccc3)C(=O)N2[C@H]1C(=O)O [ampicillin] | dropped as a result of lysing and disintegration of cells | several log decrease | essentially leveled off | approximately 30 minutes | within a one-hour time frame | dropped dramatically |  | 
2 | polymyxin B |  | greater than several log decrease |  |  | within a one-hour time frame | dropped dramatically | does not induce a disintegration | no CFUs were recovered
